Tests used:
[1] = tested on: MM.1S (MM1S); test: CCK-8 tumor cell proliferation IC50, MM.1S; conditions: MM.1S cells, compounds designed based on the IRAK4 inhibitors, read-out: Inhibitory activity (IC50, nM) on tumor cell proliferation, MM.1S
Description: (§1) The tumor cells used herein were cultured in a cell culture medium listed in table A1 at 37° C. in an incubator with 5% CO2. Prior to experimentation, all cell lines used were correctly identified by STR profiling, and tested negative for mycoplasma contamination using a mycoplasma detection kit through routine screenings.
(§2) IC50 values of the compounds of the present disclosure (including the compounds in Table 1, and compounds of examples) were measured using the Meilun Cell Counting Kit-8 kit from Dalian Meilun Biotech Co., Ltd. Assay details are as follows: tumor cells were seeded in a 96-well plate at a density listed in Table A2. After 24 h, 100 μL of the inoculated cells were treated with 0.5 μL of the compounds of the present disclosure (including the compounds in Tables 1 and 2, and compounds of examples) at 10 different successively decreasing concentrations (starting at the highest concentration of 1 μM; 5-fold serial dilutions). After the cells were treated with the compounds of the present disclosure for a period of time, the cell viability detection reagent was added to the culture medium for cell viability assessment according to the instructions provided with the CCK-8 kit. […] The growth inhibition of the compounds of the present disclosure on cells was plotted by Prism Graphpad software, and the IC50 values of the compounds of the present disclosure were calculated therefrom.

[2] = tested on: H1299; test: CCK-8 tumor cell proliferation IC50, H1299; design: species or system human; conditions: H1299 cells, compounds designed based on the IRAK4 inhibitors, read-out: Inhibitory activity (IC50, nM) on tumor cell proliferation, H1299
Description: as §1, §2

[3] = tested on: MGC-803 (MGC80-3, MGC803); test: CCK-8 tumor cell proliferation IC50, MGC-803; design: species or system human; conditions: MGC803 cells, compounds designed based on the IRAK4 inhibitors, read-out: Inhibitory activity (IC50, nM) on tumor cell proliferation, MGC803
Description: as §1, §2

[4] = tested on: NCI-H1975 (H1975); test: CCK-8 tumor cell proliferation IC50, NCI-H1975; conditions: Homo sapiens, Table B3, designed based on the EGFR inhibitors, 96 hours, read-out: Inhibitory activity (IC50, nM) on tumor cell proliferation: H1975
Description: as §1
as §2, with “dilutions).” for “dilutions). After the cells were treated with the compounds of the present disclosure for a period of time, the cell viability detection reagent was added to the culture medium for cell viability assessment according to the instructions provided with the CCK-8 kit.”

[5] = biological target: T1, IKZF1 (Homo sapiens, UniProt Q13422+Q96SW2); test: Western blot degradation of IKZF1 in hPBMC; type: cell-based
T1 construct: endogenous in cells; host or cells: hPBMC
T1 sequence (Q13422 whole entry): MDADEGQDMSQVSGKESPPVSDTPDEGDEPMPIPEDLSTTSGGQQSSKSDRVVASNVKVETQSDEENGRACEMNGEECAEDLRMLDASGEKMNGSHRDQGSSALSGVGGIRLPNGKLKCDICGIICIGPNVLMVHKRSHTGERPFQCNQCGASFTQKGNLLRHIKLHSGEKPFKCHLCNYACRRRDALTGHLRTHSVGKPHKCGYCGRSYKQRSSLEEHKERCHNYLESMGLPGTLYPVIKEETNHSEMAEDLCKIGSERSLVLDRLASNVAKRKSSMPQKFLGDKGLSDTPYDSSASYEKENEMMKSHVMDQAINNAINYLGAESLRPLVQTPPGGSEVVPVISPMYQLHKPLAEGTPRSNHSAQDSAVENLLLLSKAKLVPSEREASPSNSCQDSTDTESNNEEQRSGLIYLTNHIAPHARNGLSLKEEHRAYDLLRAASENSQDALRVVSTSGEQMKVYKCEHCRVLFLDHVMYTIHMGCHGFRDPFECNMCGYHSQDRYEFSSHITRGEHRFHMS
T1 sequence (Q96SW2 whole entry): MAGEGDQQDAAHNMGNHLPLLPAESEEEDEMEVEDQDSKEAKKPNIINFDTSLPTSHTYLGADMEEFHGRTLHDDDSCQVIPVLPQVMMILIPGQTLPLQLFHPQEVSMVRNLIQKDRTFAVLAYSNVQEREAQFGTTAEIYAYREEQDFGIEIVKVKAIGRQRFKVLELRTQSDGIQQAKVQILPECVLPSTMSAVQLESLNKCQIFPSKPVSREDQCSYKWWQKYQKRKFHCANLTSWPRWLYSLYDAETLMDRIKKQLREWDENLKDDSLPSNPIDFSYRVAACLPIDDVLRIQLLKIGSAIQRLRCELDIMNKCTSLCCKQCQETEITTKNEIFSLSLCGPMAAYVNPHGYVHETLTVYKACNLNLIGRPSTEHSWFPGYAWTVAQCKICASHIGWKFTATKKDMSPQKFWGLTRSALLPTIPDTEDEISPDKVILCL
T1 sequence (Q16531 whole entry partner): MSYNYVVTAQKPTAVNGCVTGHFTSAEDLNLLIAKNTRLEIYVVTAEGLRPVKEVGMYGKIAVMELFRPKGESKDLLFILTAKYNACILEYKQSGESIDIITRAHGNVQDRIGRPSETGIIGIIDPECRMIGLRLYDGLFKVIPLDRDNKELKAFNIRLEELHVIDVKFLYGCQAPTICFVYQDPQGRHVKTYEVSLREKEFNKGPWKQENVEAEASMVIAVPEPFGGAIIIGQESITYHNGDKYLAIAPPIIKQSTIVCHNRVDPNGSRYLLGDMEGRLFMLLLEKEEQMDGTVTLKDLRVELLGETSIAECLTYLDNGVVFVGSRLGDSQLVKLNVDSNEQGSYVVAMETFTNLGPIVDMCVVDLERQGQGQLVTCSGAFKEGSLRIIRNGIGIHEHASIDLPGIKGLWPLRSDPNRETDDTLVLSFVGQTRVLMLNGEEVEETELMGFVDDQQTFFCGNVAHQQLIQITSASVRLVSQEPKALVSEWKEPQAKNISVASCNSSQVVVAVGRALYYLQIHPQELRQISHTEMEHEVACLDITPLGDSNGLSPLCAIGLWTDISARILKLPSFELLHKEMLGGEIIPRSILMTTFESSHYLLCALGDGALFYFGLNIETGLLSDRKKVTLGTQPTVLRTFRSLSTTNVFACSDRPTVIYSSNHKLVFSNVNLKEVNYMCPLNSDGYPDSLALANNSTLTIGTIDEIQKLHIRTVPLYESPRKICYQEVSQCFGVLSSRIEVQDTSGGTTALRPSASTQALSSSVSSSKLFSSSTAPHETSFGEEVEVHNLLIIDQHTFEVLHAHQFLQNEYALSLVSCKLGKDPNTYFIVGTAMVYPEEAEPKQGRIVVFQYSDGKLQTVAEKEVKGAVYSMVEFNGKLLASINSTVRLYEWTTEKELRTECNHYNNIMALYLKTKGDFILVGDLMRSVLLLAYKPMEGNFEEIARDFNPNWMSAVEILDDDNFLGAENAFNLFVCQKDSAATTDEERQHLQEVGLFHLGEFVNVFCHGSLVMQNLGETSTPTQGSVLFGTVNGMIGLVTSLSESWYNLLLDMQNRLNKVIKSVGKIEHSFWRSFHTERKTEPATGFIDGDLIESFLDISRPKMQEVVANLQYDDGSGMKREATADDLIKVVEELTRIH
Outline: (§3)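 Percent target remaining and DC50 derive from grayscale of Western bands in degrader-treated hPBMC, normalized to an internal control protein and compared with DMSO samples. Gels were SDS-PAGE, transferred onto nitrocellulose and blocked one hour at room temperature.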

[6] = biological target: T2, IKZF2 (Homo sapiens, UniProt Q96SW2+Q9UKS7); test: Western blot degradation of IKZF2 in hPBMC; type: cell-based
T2 construct: endogenous in cells; host or cells: hPBMC
Outline: as §3

[7] = biological target: T3, WEE1 (Homo sapiens, UniProt P30291+Q96SW2); test: Western blot degradation of WEE1 in hPBMC; type: cell-based
T3 construct: endogenous in cells; host or cells: hPBMC
T3 sequence (P30291 whole entry): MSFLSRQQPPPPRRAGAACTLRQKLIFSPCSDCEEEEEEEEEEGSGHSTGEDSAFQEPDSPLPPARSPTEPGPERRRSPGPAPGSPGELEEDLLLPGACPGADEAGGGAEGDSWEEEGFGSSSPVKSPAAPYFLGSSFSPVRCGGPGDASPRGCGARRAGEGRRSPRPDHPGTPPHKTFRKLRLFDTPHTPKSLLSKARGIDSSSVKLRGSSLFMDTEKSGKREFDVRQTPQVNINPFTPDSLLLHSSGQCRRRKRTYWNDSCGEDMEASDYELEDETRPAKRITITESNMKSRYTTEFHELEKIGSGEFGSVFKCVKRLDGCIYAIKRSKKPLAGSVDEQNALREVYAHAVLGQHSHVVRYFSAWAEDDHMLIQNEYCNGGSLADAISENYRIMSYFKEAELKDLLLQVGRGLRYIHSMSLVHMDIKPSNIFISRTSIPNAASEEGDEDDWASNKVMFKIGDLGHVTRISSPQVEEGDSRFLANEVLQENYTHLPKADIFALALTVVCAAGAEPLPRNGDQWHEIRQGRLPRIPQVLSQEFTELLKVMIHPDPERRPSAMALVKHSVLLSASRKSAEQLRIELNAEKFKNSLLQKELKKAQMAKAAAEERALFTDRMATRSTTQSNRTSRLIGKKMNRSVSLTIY
T3 sequence (Q96SW2 whole entry): as the sequence (Q96SW2 whole entry) above
T3 sequence (Q16531 whole entry partner): as the sequence (Q16531 whole entry partner) above
Outline: as §3

[8] = biological target: T4, CK1a (Homo sapiens, UniProt P48729+Q96SW2); test: Western blot degradation of CK1a in hPBMC; type: cell-based
T4 construct: endogenous in cells; host or cells: hPBMC
T4 sequence (P48729 whole entry): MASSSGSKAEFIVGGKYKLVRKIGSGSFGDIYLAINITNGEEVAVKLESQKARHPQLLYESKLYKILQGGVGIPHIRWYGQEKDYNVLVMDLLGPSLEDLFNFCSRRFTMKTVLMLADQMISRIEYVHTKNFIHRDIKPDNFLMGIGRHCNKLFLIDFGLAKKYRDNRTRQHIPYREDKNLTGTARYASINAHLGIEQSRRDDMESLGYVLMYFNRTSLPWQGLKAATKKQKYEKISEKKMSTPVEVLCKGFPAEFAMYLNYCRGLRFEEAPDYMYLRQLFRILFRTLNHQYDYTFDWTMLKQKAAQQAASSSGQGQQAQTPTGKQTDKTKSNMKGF
T4 sequence (Q96SW2 whole entry): as the sequence (Q96SW2 whole entry) above
T4 sequence (Q16531 whole entry partner): as the sequence (Q16531 whole entry partner) above
Outline: as §3

[9] = biological target: T5, IKZF3 (Homo sapiens, UniProt Q96SW2+Q9UKT9); test: Western blot degradation of IKZF3 in hPBMC; type: cell-based
T5 construct: endogenous in cells; host or cells: hPBMC
T5 sequence (Q9UKT9 whole entry): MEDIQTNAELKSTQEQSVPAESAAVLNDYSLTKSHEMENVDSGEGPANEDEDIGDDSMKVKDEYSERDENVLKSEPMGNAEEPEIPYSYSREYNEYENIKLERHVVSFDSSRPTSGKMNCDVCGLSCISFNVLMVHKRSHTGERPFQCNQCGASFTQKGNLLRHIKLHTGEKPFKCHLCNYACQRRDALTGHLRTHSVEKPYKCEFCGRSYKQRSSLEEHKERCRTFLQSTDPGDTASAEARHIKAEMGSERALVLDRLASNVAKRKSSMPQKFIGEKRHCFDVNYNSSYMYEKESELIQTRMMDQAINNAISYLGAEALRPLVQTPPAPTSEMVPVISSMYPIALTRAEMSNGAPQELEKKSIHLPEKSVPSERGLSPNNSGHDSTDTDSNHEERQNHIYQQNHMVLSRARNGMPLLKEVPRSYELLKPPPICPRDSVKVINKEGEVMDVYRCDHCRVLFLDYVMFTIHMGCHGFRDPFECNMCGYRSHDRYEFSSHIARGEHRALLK
T5 sequence (Q96SW2 whole entry): as the sequence (Q96SW2 whole entry) above
T5 sequence (Q16531 whole entry partner): as the sequence (Q16531 whole entry partner) above
Outline: as §3

[10] = biological target: T6, GSPT1 (Homo sapiens, UniProt P15170+Q96SW2); test: Western blot degradation of GSPT1 in hPBMC; type: cell-based
T6 construct: endogenous in cells; host or cells: hPBMC
T6 sequence (P15170 whole entry): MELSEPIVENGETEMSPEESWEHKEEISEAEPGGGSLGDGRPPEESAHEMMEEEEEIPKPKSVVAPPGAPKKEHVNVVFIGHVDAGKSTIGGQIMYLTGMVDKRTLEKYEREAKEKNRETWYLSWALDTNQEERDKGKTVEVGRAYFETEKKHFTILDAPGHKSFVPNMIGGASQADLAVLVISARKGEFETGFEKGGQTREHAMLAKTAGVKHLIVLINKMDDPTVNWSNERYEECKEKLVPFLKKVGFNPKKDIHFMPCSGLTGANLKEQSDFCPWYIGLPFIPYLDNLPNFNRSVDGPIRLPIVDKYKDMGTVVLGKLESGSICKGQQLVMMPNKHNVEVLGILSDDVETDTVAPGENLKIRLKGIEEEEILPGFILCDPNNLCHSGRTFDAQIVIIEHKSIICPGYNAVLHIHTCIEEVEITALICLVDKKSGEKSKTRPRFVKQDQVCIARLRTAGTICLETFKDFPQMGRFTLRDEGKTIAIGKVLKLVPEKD
T6 sequence (Q96SW2 whole entry): as the sequence (Q96SW2 whole entry) above
T6 sequence (Q16531 whole entry partner): as the sequence (Q16531 whole entry partner) above
Outline: as §3

IC50 [1]	IC50 [2]	IC50 [3]	SMILES	IC50 [4]	Degradation of substrate protein IKZF1 (substrate protein remaining %) [5]	Degradation of substrate protein IKZF2 (substrate protein remaining %) [6]	Degradation of substrate protein WEE1 (substrate protein remaining %) [7]	Degradation of substrate protein CK1a (substrate protein remaining %) [8]	Degradation of substrate protein IKZF3 (substrate protein remaining %) [9]	Degradation of substrate protein GSPT1 (substrate protein remaining %) [10]
100 to 500 nM			O=C1CCC(Nc2cccc(CN3CCN(Cc4ccc5c(c4)nc(NC(=O)c4cccc(C(F)(F)F)c4)n5C4CCC(CO)CC4)CC3)c2)C(=O)N1 (stereo not drawn) [GT-04976, N-(5-((4-(3-((2,6-dioxopiperidin-3-yl)amino)benzyl)piperazin-1-yl)methyl)-1-((1s,4s)-4-(hydroxymethyl)cyclohexyl)-1H-benzo[d]imidazol-2-yl)-3-(trifluoromethyl)benzamide]							
100 to 500 nM	500 to 1000 nM	500 to 1000 nM	O=C1CCC(c2ccc(CN3CCN(c4ccc5c(c4)nc(NC(=O)c4cccc(C(F)(F)F)c4)n5C4CCC(CO)CC4)CC3)cc2)C(=O)N1 (stereo not drawn) [GT-04981, N-(5-(4-(4-(2,6-dioxopiperidin-3-yl)benzyl)piperazin-1-yl)-1-((1s,4s)-4-(hydroxymethyl)cyclohexyl)-1H-benzo[d]imidazol-2-yl)-3-(trifluoromethyl)benzamide]							
50 to 100 nM	100 to 500 nM	100 to 500 nM	O=C1CCN(c2ccc(CN3CCN(c4ccc5c(c4)nc(NC(=O)c4cccc(C(F)(F)F)c4)n5[C@H]4CC[C@@H](CO)CC4)CC3)cc2)C(=O)N1 [GT-04982, N-(5-(4-(4-(2,4-dioxotetrahydropyrimidin-1(2H)-yl)benzyl)piperazin-1-yl)-1-((1s,4s)-4-(hydroxymethyl)cyclohexyl)-1H-benzo[d]imidazol-2-yl)-3-(trifluoromethyl)benzamide]							
100 to 500 nM	100 to 500 nM	100 to 500 nM	O=C1CCN(c2ccc(CN3CCN(c4ccc5c(c4)nc(NC(=O)c4cccc(C(F)(F)F)c4)n5[C@H]4CC[C@@H](CO)CC4)CC3)nc2)C(=O)N1 [GT-04986, N-(5-(4-((5-(2,4-dioxotetrahydropyrimidin-1(2H)-yl)pyridin-2-yl)methyl)piperazin-1-yl)-1-((1s,4s)-4-(hydroxymethyl)cyclohexyl)-1H-benzo[d]imidazol-2-yl)-3-(trifluoromethyl)benzamide]							
500 to 1000 nM			O=C1CCC(Nc2cccc(CN3CCC(N4CCN(c5ccc6c(c5)nc(NC(=O)c5cccc(C(F)(F)F)c5)n6[C@H]5CC[C@@H](CO)CC5)CC4)CC3)c2)C(=O)N1 (stereo partly drawn) [GT-05023, N-(5-(4-(1-(3-((2,6-dioxopiperidin-3-yl)amino)benzyl)piperidin-4-yl)piperazin-1-yl)-1-((1s,4s)-4-(hydroxymethyl)cyclohexyl)-1H-benzo[d]imidazol-2-yl)-3-(trifluoromethyl)benzamide]							
			O=C1CCN(c2ccc(CN3C4CCC3CN(c3ccc(-c5cc(F)c6c(c5)C(=O)N(C(C(=O)Nc5nccs5)c5ncn7c5CCC7)C6)cc3)C4)cn2)C(=O)N1 (stereo not drawn) [GT-06256, 2-(6,7-dihydro-5H-pyrrolo[1,2-c]imidazol-1-yl)-2-(6-(4-(8-((6-(2,4-dioxotetrahydropyrimidin-1(2H)-yl)pyridin-3-yl)methyl)-3,8-diazabicyclo[3.2.1]octan-3-yl)phenyl)-4-fluoro-1-oxoisoindolin-2-yl)-N-(thiazol-2-yl)acetamide]	1 to 10 nM						
			NCc1cncc(N2CCC(=O)NC2=O)n1 [GT-07801, 1-(6-(aminomethyl)pyrazin-2-yl)dihydropyrimidine-2,4(1H,3H)-dione]		B (B is defined as substrate protein remaining % > 80%)	B (B is defined as substrate protein remaining % > 80%)	B (B is defined as substrate protein remaining % > 80%)	A (A is defined as 0% ≤ substrate protein remaining % ≤ 80%)	B (B is defined as substrate protein remaining % > 80%)	B (B is defined as substrate protein remaining % > 80%)
			O=C1CCC(Nc2ccc(CO)nn2)C(=O)N1 (stereo not drawn) [GT-07803, 3-((6-(hydroxymethyl)pyridazin-3-yl)amino)piperidine-2,6-dione]		A (A is defined as 0% ≤ substrate protein remaining % ≤ 80%)	A (A is defined as 0% ≤ substrate protein remaining % ≤ 80%)	B (B is defined as substrate protein remaining % > 80%)	B (B is defined as substrate protein remaining % > 80%)	A (A is defined as 0% ≤ substrate protein remaining % ≤ 80%)	B (B is defined as substrate protein remaining % > 80%)
			O=Cc1ccncc1NC1CCC(=O)NC1=O (stereo not drawn) [GT-07804, 3-((2,6-dioxopiperidin-3-yl)amino)isonicotinaldehyde]		B (B is defined as substrate protein remaining % > 80%)	A (A is defined as 0% ≤ substrate protein remaining % ≤ 80%)	B (B is defined as substrate protein remaining % > 80%)	B (B is defined as substrate protein remaining % > 80%)	A (A is defined as 0% ≤ substrate protein remaining % ≤ 80%)	B (B is defined as substrate protein remaining % > 80%)
			O=Cc1cncnc1NC1CCC(=O)NC1=O (stereo not drawn) [GT-07805, 4-((2,6-dioxopiperidin-3-yl)amino)pyrimidine-5-carbaldehyde]		A (A is defined as 0% ≤ substrate protein remaining % ≤ 80%)	A (A is defined as 0% ≤ substrate protein remaining % ≤ 80%)	B (B is defined as substrate protein remaining % > 80%)	B (B is defined as substrate protein remaining % > 80%)	A (A is defined as 0% ≤ substrate protein remaining % ≤ 80%)	B (B is defined as substrate protein remaining % > 80%)
			CC(C)(C)[Si](C)(C)OCc1cnc(NC2CCC(=O)NC2=O)nc1 (stereo not drawn) [GT-07808, 3-((5-(((tert-butyldimethylsilyl)oxy)methyl)pyrimidin-2-yl)amino)piperidine-2,6-dione]		A (A is defined as 0% ≤ substrate protein remaining % ≤ 80%)	A (A is defined as 0% ≤ substrate protein remaining % ≤ 80%)	A (A is defined as 0% ≤ substrate protein remaining % ≤ 80%)	B (B is defined as substrate protein remaining % > 80%)	A (A is defined as 0% ≤ substrate protein remaining % ≤ 80%)	B (B is defined as substrate protein remaining % > 80%)
			O=C1CCC(Nc2ncc(CO)cn2)C(=O)N1 (stereo not drawn) [GT-07809, 3-((5-(hydroxymethyl)pyrimidin-2-yl)amino)piperidine-2,6-dione]		A (A is defined as 0% ≤ substrate protein remaining % ≤ 80%)	A (A is defined as 0% ≤ substrate protein remaining % ≤ 80%)	A (A is defined as 0% ≤ substrate protein remaining % ≤ 80%)	B (B is defined as substrate protein remaining % > 80%)	A (A is defined as 0% ≤ substrate protein remaining % ≤ 80%)	B (B is defined as substrate protein remaining % > 80%)
> 10000 nM	5000 to 10000 nM	5000 to 10000 nM	CC[C@@H]1[C@H](F)C(=O)N[C@@H]1COc1nccc2cc(C(N)=O)c(OC)cc12 [PF06650833, reference compound]							

Source: patent US20260274829A1, “NEW E3 UBIQUITIN LIGASE LIGAND, PROTEIN DEGRADATION AGENT AND USE THEREOF” (GLUETACS THERAPEUTICS (SHANGHAI) CO., LTD., priority 2023, published 2026)
